Values joined by “and” are separate entries in the source; they are usually repeats but may differ in a detail not shown here. Identical values can stand only once. “Also recorded” adds a separate entry of the source. Marks after values point to notes of the source that are not given here.
Legend:
[1] = tested on: collagen antibody-induced arthritis; experiment: Mouse CAIA: hind paw / footpad volume (swelling, disease burden); format: in vivo, Balb C mice; design: Mean Disease Burden / Total Disease Burden (AUC) / Hind Limb Volume, Mean Diff. / Total Disease, Mean Diff.: unit not given here; conditions: for Hind Limb Volume, Mean Diff. / Hind Limb Volume, Summary (significance) / Total Disease, Mean Diff. / Total Disease, Summary (significance): Vehicle vs agent, Dunnett's Multiple Comparison Test; for % Disease Suppression / Total Disease Burden (AUC): days 8-22; for Maximum Δ Mean Volume: difference between mean combined foot pad volumes on day 8 and on median day of maximal swelling, vehicle 0.21; for Mean Disease Burden: group mean AUC of combined footpad volume over baseline, days 8 to 22, vehicle 1.93; for % Disease Suppression (vs Vehicle): percent decrease in total disease burden relative to vehicle
Protocol: Balb C mice (n=10 per cohort) were used to determine the efficacy of Factor H (FH) during […]. The mice were treated with ArthritoMAb (anti-collagen) antibody cocktail (2 mg, i.v.) on day 1, followed 7 days later with an injection of LPS (50 μg, i.p.). On day 8, hind paw volumes were measured for each animal and distributed to various treatment groups.
Factor H was formulated in 20 mM Citrate, 150 mM NaCl, pH=6. […] Ethanercept was formulated as Enbrel™ in saline. Vehicle was formulated in 20 mM Citrate, 150 mM NaCl, pH=6. […] The dosing volume for Factor H and BX12 was 25 mL/kg (0.500 mL/20 g mouse) and adjusted accordingly for body weight.
Dosing with the different agents was started on day 8 as described in Table 3.
The age at start date was 7 to 9 weeks. Body weights were measured bi-weekly to the endpoint (Table 4). At the endpoint, tissue samples were processed for histology and submitted to a pathologist for independent analysis. Sampling 1 was performed at the endpoint. The hind limbs were preserved in 10% formalin. Sampling 2 was performed at the endpoint for group 4 animals. Blood was collected by terminal cardiac puncture. The blood was processed for anti-coagulant. The kidneys were additionally preserved in formalin and followed with 70% EtOH. Samples were scored for inflammation, pannus (granulation tissue), cartilage damage, bone resorption and exostosis (Table 5).

[2] = tested on: pre-sensitized kidney transplants; experiment: Early phase kidney allograft histology, HE staining (Example 3); format: in vivo, C57BL/6 (B6) mice; conditions: result in words; POD5 (FIG. 6B)
Protocol: The effect of CFH with or without Adrenomedullin (AM) on kidney graft function, antibody response, and histology was determined following the early phase of transplantation (POD3 and POD5). The pre-sensitized kidney transplants were treated with CFH (8 mg, i.p.) on day −1, day 0 and then every other day. To test whether AM provides additional benefits to renal graft function, an additional group of transplants were treated with a single dose infusion (200 μl, i.v.) of AM (˜100 ug/kg) mixed with CFH (˜1 mg/kg) immediately following the transplant surgery (POD0), in addition to the i.p. injection of CFH (day-1, 0, and every other day).
All mice were sacrificed on POD3 and 5, respectively (˜5/ea). Untreated transplants sacrificed at the same endpoints were used as controls. Graft tissues were harvested for histology and immune-histochemistry (IHC). The experimental groups were as follows: 1) C3H to B6 txs+pre-sensitization+control; 2) C3H to B6 txs+pre-sensitization+CFH (i.p.); and 3) C3H to B6 txs+pre-sensitization+CFH (i.p.)+AM/CFH infusion (at time of transplant).

[3] = tested on: pre-sensitized kidney transplants; experiment: Early phase (POD3, POD5) kidney graft function, CFH with or without Adrenomedullin (Example 3); format: in vivo, C57BL/6 (B6) mice; conditions: result in words; POD5, vs. untreated controls (FIG. 6A)
Protocol: The effect of CFH with or without Adrenomedullin (AM) on kidney graft function, antibody response, and histology was determined following the early phase of transplantation (POD3 and POD5). […] To test whether AM provides additional benefits to renal graft function, an additional group of transplants were treated with a single dose infusion (200 μl, i.v.) of AM (˜100 ug/kg) mixed with CFH (˜1 mg/kg) immediately following the transplant surgery (POD0), in addition to the i.p. injection of CFH (day-1, 0, and every other day). CFH is a serum-binding protein for AM. It has been shown that AM influences the complement regulatory function of Factor H by enhancing the cleavage of C3b via Factor I. […] FH concentration will be 112.5 μg/ml). Transfer 220 μl aliquots to sterile tubes and freeze at −70 until ready for use. All mice were sacrificed on POD3 and 5, respectively (˜5/ea). Untreated transplants sacrificed at the same endpoints were used as controls. Graft tissues were harvested for histology and immune-histochemistry (IHC). The experimental groups were as follows: 1) C3H to B6 txs+pre-sensitization+control; 2) C3H to B6 txs+pre-sensitization+CFH (i.p.); and 3) C3H to B6 txs+pre-sensitization+CFH (i.p.)+AM/CFH infusion (at time of transplant).

[4] = tested on: C3H kidneys grafted into pre-sensitized recipients; experiment: Pre-sensitized mouse kidney allograft model, CFH with or without FK506, creatinine (Example 1); format: in vivo, C57BL/6 (B6) mice
Excerpt: Male C3H (H-2k) and C57BL/6 (B6, H-2b) mice (25-30 g) were used to determine the efficacy of Complement Factor H (CFH) during transplant rejection. C3H mice served as skin graft and kidney donors for pre-sensitization and kidney transplantation. Male C57BL/c (B6) mice were used as recipients. The B6 recipients were pre-sensitized by transplantation of the donor skin grafts, and were subsequently transplanted with kidney allografts between 15 and 20 days after the skin transplantation. B6 mice were treated with vehicle (controls), CFH (day −1, day 0, then every other day to day 10; 8 mg/mouse, i.p.), FK506 (daily from day −1 to day 10; 1 mg/kg s.c.) or the combination of CFH+FK506 using the same dosage regime as the single treatments. Mice were monitored daily for signs of rejection. Renal function was monitored by measuring serum creatinine levels.

[5] = day 8 of study, group mean, n 10
[6] = day 11 of study, group mean, n 10
[7] = day 12 of study, group mean, n 10
[8] = day 13 of study, group mean, n 10
[9] = day 16 of study, group mean, n 10
[10] = day 19 of study, group mean, n 10
[11] = day 22 of study, group mean, n 10
[12] = individual animal, listed as BX12

Row | Substance | Hind Limb Volume, Mean Diff. [1] | Hind Limb Volume, Summary (significance) [1] | Total Disease, Mean Diff. [1] | Total Disease, Summary (significance) [1] | Hind paw volume [1, 5] | Hind paw volume [1, 6] | Hind paw volume [1, 7] | Hind paw volume [1, 8] | Hind paw volume [1, 9] | Hind paw volume [1, 10] | Hind paw volume [1, 11] | % Disease Suppression ([1]; group mean, n 10) | Total Disease Burden (AUC) ([1]; group mean, n 10) | Maximum Δ Mean Volume [1] | Mean Disease Burden [1] | % Disease Suppression (vs Vehicle) [1] | other results
1 | Etanercept | 0.08143 | ** (= P < 0.01) | 1.19 | ** (= P < 0.01) | 0.35 mL | 0.44 mL | 0.44 mL | 0.42 mL | 0.38 mL | 0.42 mL | 0.38 mL | 61.66% | 0.74 | 0.13** ml | 0.74** | 61.7% | Hind paw volume ([1]; day 8 of study, individual animal): 0.41 mL and 0.4 mL and 0.38 mL and 0.37 mL and 0.35 mL and 0.34 mL and 0.32 mL and 0.31 mL and 0.3 mL (2×); Hind paw volume ([1]; day 11 of study, individual animal): 0.49 mL and 0.44 mL (2×) and 0.37 mL and 0.38 mL and 0.59 mL and 0.4 mL (2×) and 0.45 mL and 0.41 mL; Hind paw volume ([1]; day 12 of study, individual animal): 0.58 mL and 0.44 mL and 0.35 mL and 0.42 mL and 0.46 mL and 0.49 mL and 0.45 mL and 0.39 mL (2×) and 0.4 mL; Hind paw volume ([1]; day 13 of study, individual animal): 0.58 mL and 0.41 mL (2×) and 0.36 mL and 0.33 mL and 0.49 mL and 0.39 mL and 0.35 mL and 0.43 mL and 0.4 mL; Hind paw volume ([1]; day 16 of study, individual animal): 0.45 mL and 0.46 mL and 0.34 mL and 0.37 mL and 0.43 mL and 0.41 mL and 0.33 mL (2×) and 0.32 mL and 0.3 mL; Hind paw volume ([1]; day 19 of study, individual animal): 0.61 mL and 0.43 mL and 0.4 mL and 0.47 mL (2×) and 0.32 mL and 0.42 mL and 0.35 mL and 0.33 mL and 0.36 mL; Hind paw volume ([1]; day 22 of study, individual animal): 0.55 mL and 0.41 mL (2×) and 0.34 mL (2×) and 0.39 mL and 0.36 mL (3×) and 0.32 mL; % Disease Suppression ([1]; individual animal): 16.3% and 74.3% and 109.8% and 81.9% and 52.3% and 49.7% and 69.4% and 70.2% and 29.0% and 63.7%; Total Disease Burden (AUC) ([1]; individual animal): 1.62 and 0.58 (2×) and −0.19 and 0.35 and 0.92 and 0.97 and 0.59 and 1.37 and 0.70
2 | Factor H | 0.1199 | *** (= P < 0.001) | 1.88 | *** (= P < 0.001) | 0.35 mL | 0.39 mL | 0.44 mL | 0.36 mL | 0.31 mL | 0.34 mL | 0.35 mL | 97.33% | 0.05 | 0.12*** ml | 0.05*** | 97.3% | kidney graft morphology (HE staining) [2]: improved morphology with less tubular necrosis on POD5; renal function, Cr level [3]: trend of improved renal function; Hind paw volume ([1]; day 8 of study, individual animal, listed as BX12): 0.41 mL and 0.4 mL and 0.38 mL and 0.37 mL and 0.35 mL and 0.34 mL and 0.32 mL (2×) and 0.3 mL (2×); Hind paw volume ([1]; day 11 of study, individual animal, listed as BX12): 0.44 mL and 0.36 mL and 0.38 mL and 0.4 mL and 0.34 mL and 0.39 mL and 0.46 mL and 0.43 mL and 0.35 mL; Hind paw volume ([1]; day 12 of study, individual animal, listed as BX12): 0.5 mL and 0.56 mL and 0.52 mL and 0.4 mL and 0.35 mL and 0.55 mL and 0.37 mL and 0.34 mL and 0.3 mL and 0.45 mL; Hind paw volume ([1]; day 13 of study, individual animal, listed as BX12): 0.32 mL (2×) and 0.54 mL and 0.36 mL and 0.29 mL (2×) and 0.43 mL and 0.37 mL and 0.39 mL and 0.33 mL; Hind paw volume ([1]; day 16 of study, individual animal, listed as BX12): 0.29 mL (2×) and 0.35 mL (2×) and 0.32 mL and 0.28 mL (3×) and 0.42 mL and 0.27 mL; Hind paw volume ([1]; day 19 of study, individual animal, listed as BX12): 0.3 mL (2×) and 0.4 mL and 0.42 mL and 0.31 mL and 0.25 mL and 0.45 mL and 0.29 mL (2×) and 0.36 mL; Hind paw volume ([1]; day 22 of study, individual animal, listed as BX12): 0.38 mL and 0.39 mL and 0.32 mL (2×) and 0.33 mL and 0.42 mL and 0.35 mL and 0.34 mL (2×) and 0.29 mL; % Disease Suppression [1, 12]: 140.2% and 93.5% and 107.8% and 121.6% and 130.8% and 38.3% and 96.1% and 96.9% and 65.5% and 52.1%; Total Disease Burden (AUC) [1, 12]: −0.78 and 0.13 and −0.15 and −0.42 and −0.60 and 1.19 and 0.08 (2×) and 0.55 and 0.35; foot pad / hind limb swelling ([1]; result in words (Table 9, FIG. 9), listed as FH): lower mean change in foot pad swelling on the day of maximal swelling compared to vehicle; also recorded: performed well compared to Etanercept; plasma Cr levels ([4]; POD7, CFH 8 mg/mouse i.p., controls 1.9±0.1): 1.4 ± 0.2 mg/dL; renal allograft function ([4]; result in words, creatinine on POD7 (FIG. 2)): improving renal allograft function
